# In PubChem BioAssay (NCI):
#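 Test compounds were applied to cells in 96-well plates for 48 hours at 5 doses. GI50 = concentration required for 50% inhibition of growth. TGI: total growth inhibition.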
# What was measured:
# Experiment in all cases: NCI-60 cell line screen, 48 h
# U251 CNS = test system: U251 CNS
# RXF 393 renal = test system: RXF 393 renal
# NCI-H460 lung = test system: NCI-H460 lung
# HOP-62 NSCLC = test system: HOP-62 NSCLC
# SF-268 CNS = test system: SF-268 CNS
# HCT-15 colon = test system: HCT-15 colon
# MALME-3M melanoma = test system: MALME-3M melanoma
# OVCAR-5 ovarian = test system: OVCAR-5 ovarian
# A498 renal = test system: A498 renal
# A549 NSCLC = test system: A549 NSCLC
# SK-MEL-28 melanoma = test system: SK-MEL-28 melanoma
# OVCAR-4 ovarian = test system: OVCAR-4 ovarian
# ACHN renal = test system: ACHN renal
# OVCAR-8 ovarian = test system: OVCAR-8 ovarian
# EKVX NSCLC = test system: EKVX NSCLC
# NCI-H522 lung = test system: NCI-H522 lung
# CAKI-1 renal = test system: CAKI-1 renal
# SF-539 CNS = test system: SF-539 CNS
# SK-MEL-2 melanoma = test system: SK-MEL-2 melanoma
# NCI-H23 lung = test system: NCI-H23 lung
# UACC-62 melanoma = test system: UACC-62 melanoma
# PC-3 prostate = test system: PC-3 prostate
# KM12 colon = test system: KM12 colon
# HCC-2998 colon = test system: HCC-2998 colon
# MOLT-4 leukemia = test system: MOLT-4 leukemia
# K-562 leukemia = test system: K-562 leukemia
# TK-10 renal = test system: TK-10 renal
# MCF7 breast = test system: MCF7 breast
# OVCAR-3 ovarian = test system: OVCAR-3 ovarian
# UACC-257 melanoma = test system: UACC-257 melanoma
# 786-0 renal = test system: 786-0 renal
# NCI-H226 lung = test system: NCI-H226 lung
# SF-295 CNS = test system: SF-295 CNS
# HS 578T breast = test system: HS 578T breast
# HOP-92 NSCLC = test system: HOP-92 NSCLC
# MDA-MB-231 breast = test system: MDA-MB-231 breast
# NCI/ADR-RES ovarian = test system: NCI/ADR-RES ovarian
# RPMI-8226 leukemia = test system: RPMI-8226 leukemia
# SNB-19 CNS = test system: SNB-19 CNS
# COLO 205 colon = test system: COLO 205 colon
# UO-31 renal = test system: UO-31 renal
# DU-145 prostate = test system: DU-145 prostate
# BT-549 breast = test system: BT-549 breast
# M14 melanoma = test system: M14 melanoma
# SNB-75 CNS = test system: SNB-75 CNS
# T-47D breast = test system: T-47D breast
# IGROV1 ovarian = test system: IGROV1 ovarian
# HT29 colon = test system: HT29 colon
# HCT-116 colon = test system: HCT-116 colon
# SK-MEL-5 melanoma = test system: SK-MEL-5 melanoma
# CCRF-CEM leukemia = test system: CCRF-CEM leukemia
# SN12C renal = test system: SN12C renal
# MDA-MB-435 = test system: MDA-MB-435
# HL-60(TB) leukemia = test system: HL-60(TB) leukemia
# SW-620 colon = test system: SW-620 colon
# LOX IMVI melanoma = test system: LOX IMVI melanoma
structure (smiles),measurement,setting,value
Cc1cc([C@H](C)Nc2nccc(N3C(=O)OC[C@@H]3[C@H](C)F)n2)ncc1-c1ccnc(C(F)(F)F)c1,GI50,U251 CNS,39.5 µM
same,TGI,U251 CNS,> 100 µM
same,GI50,RXF 393 renal,11.3 µM
same,TGI,RXF 393 renal,86.4 µM
same,GI50,NCI-H460 lung,37.4 µM
same,TGI,NCI-H460 lung,> 100 µM
same,GI50,HOP-62 NSCLC,28.7 µM
same,TGI,HOP-62 NSCLC,> 100 µM
same,GI50,SF-268 CNS,54 µM
same,TGI,SF-268 CNS,> 100 µM
same,GI50,HCT-15 colon,35.5 µM
same,TGI,HCT-15 colon,> 100 µM
same,GI50,MALME-3M melanoma,24.2 µM
same,TGI,MALME-3M melanoma,> 100 µM
same,GI50,OVCAR-5 ovarian,> 100 µM
same,TGI,OVCAR-5 ovarian,> 100 µM
same,GI50,A498 renal,15.6 µM
same,TGI,A498 renal,92.1 µM
same,GI50,A549 NSCLC,29.8 µM
same,TGI,A549 NSCLC,> 100 µM
same,GI50,SK-MEL-28 melanoma,48.8 µM
same,TGI,SK-MEL-28 melanoma,> 100 µM
same,GI50,OVCAR-4 ovarian,31.2 µM
same,TGI,OVCAR-4 ovarian,> 100 µM
same,GI50,ACHN renal,24.7 µM
same,TGI,ACHN renal,> 100 µM
same,GI50,OVCAR-8 ovarian,33.5 µM
same,TGI,OVCAR-8 ovarian,> 100 µM
same,GI50,EKVX NSCLC,19.2 µM
same,TGI,EKVX NSCLC,> 100 µM
same,GI50,NCI-H522 lung,31.7 µM
same,TGI,NCI-H522 lung,> 100 µM
same,GI50,CAKI-1 renal,27.8 µM
same,TGI,CAKI-1 renal,> 100 µM
same,GI50,SF-539 CNS,61.3 µM
same,TGI,SF-539 CNS,> 100 µM
same,GI50,SK-MEL-2 melanoma,40.2 µM
same,TGI,SK-MEL-2 melanoma,> 100 µM
same,GI50,NCI-H23 lung,17 µM
same,TGI,NCI-H23 lung,> 100 µM
same,GI50,UACC-62 melanoma,21.7 µM
same,TGI,UACC-62 melanoma,> 100 µM
same,GI50,PC-3 prostate,31.3 µM
same,TGI,PC-3 prostate,> 100 µM
same,GI50,KM12 colon,33.8 µM
same,TGI,KM12 colon,> 100 µM
same,GI50,HCC-2998 colon,72.6 µM
same,TGI,HCC-2998 colon,> 100 µM
same,GI50,MOLT-4 leukemia,34.6 µM
same,TGI,MOLT-4 leukemia,> 100 µM
same,GI50,K-562 leukemia,37.1 µM
same,TGI,K-562 leukemia,> 100 µM
same,GI50,TK-10 renal,53 µM
same,TGI,TK-10 renal,> 100 µM
same,GI50,MCF7 breast,26.7 µM
same,TGI,MCF7 breast,> 100 µM
same,GI50,OVCAR-3 ovarian,36.3 µM
same,TGI,OVCAR-3 ovarian,> 100 µM
same,GI50,UACC-257 melanoma,30.5 µM
same,TGI,UACC-257 melanoma,> 100 µM
same,GI50,786-0 renal,42.4 µM
same,TGI,786-0 renal,> 100 µM
same,GI50,NCI-H226 lung,30.5 µM
same,TGI,NCI-H226 lung,> 100 µM
same,GI50,SF-295 CNS,20.1 µM
same,TGI,SF-295 CNS,> 100 µM
same,GI50,HS 578T breast,39.2 µM
same,TGI,HS 578T breast,> 100 µM
same,GI50,HOP-92 NSCLC,14.9 µM
same,TGI,HOP-92 NSCLC,> 100 µM
same,GI50,MDA-MB-231 breast,34.5 µM
same,TGI,MDA-MB-231 breast,> 100 µM
same,GI50,NCI/ADR-RES ovarian,23.3 µM
same,TGI,NCI/ADR-RES ovarian,> 100 µM
same,GI50,RPMI-8226 leukemia,16.7 µM
same,TGI,RPMI-8226 leukemia,> 100 µM
same,GI50,SNB-19 CNS,39 µM
same,TGI,SNB-19 CNS,> 100 µM
same,GI50,COLO 205 colon,21.9 µM
same,TGI,COLO 205 colon,62.9 µM
same,GI50,UO-31 renal,6.08 µM
same,TGI,UO-31 renal,> 100 µM
same,GI50,DU-145 prostate,75.6 µM
same,TGI,DU-145 prostate,> 100 µM
same,GI50,BT-549 breast,18.1 µM
same,TGI,BT-549 breast,82.6 µM
same,GI50,M14 melanoma,37.7 µM
same,TGI,M14 melanoma,> 100 µM
same,GI50,SNB-75 CNS,88.2 µM
same,TGI,SNB-75 CNS,> 100 µM
same,GI50,T-47D breast,16.4 µM
same,TGI,T-47D breast,> 100 µM
same,GI50,IGROV1 ovarian,25.9 µM
same,TGI,IGROV1 ovarian,> 100 µM
same,GI50,HT29 colon,35.6 µM
same,TGI,HT29 colon,> 100 µM
same,GI50,HCT-116 colon,22.7 µM
same,TGI,HCT-116 colon,> 100 µM
same,GI50,SK-MEL-5 melanoma,12.1 µM
same,TGI,SK-MEL-5 melanoma,33 µM
same,GI50,CCRF-CEM leukemia,38.1 µM
same,TGI,CCRF-CEM leukemia,> 100 µM
same,GI50,SN12C renal,44.5 µM
same,TGI,SN12C renal,> 100 µM
same,GI50,MDA-MB-435,41.1 µM
same,TGI,MDA-MB-435,> 100 µM
same,GI50,HL-60(TB) leukemia,35.7 µM
same,TGI,HL-60(TB) leukemia,> 100 µM
same,GI50,SW-620 colon,46.6 µM
same,TGI,SW-620 colon,> 100 µM
same,GI50,LOX IMVI melanoma,36.5 µM
same,TGI,LOX IMVI melanoma,> 100 µM
